In ChEMBL document CHEMBL3886468, “Cyclohexylamine derivatives having β2 adrenergic agonist and M3 muscarinic antagonist activities” (2016):

Target: Muscarinic acetylcholine receptor M3 (Homo sapiens, UniProt P20309)
Test: Muscarinic Receptor Binding Assay: The study of binding to human muscarinic M1, M2, M3, M4 and M5 receptors was performed using commercial membranes (Perkin Elmer) prepared from CHO-K1 cells. Radioligand binding experiments were conducted in 96 polypropylene well plates in a total volume of 200 ul. All reagents were dissolved in assay binding buffer (PBS with calcium and magnesium, SIGMA), except compounds that were dissolved in DMSO 100%. Non-specific binding (NSB) was measured in the presence of 1 uM atropine. [3H]-NMS was used as the radioligand at a concentration of 1 nM for M2, M3 and M5 and 0.3 nM for M1 and M4. [3H]-NMS and antagonists were incubated with membranes that express human muscarinic receptors M1, M2, M3, M4 and M5 at concentrations of 8.1, 10, 4.9, 4.5 and 4.9 ug/well, respectively. After an incubation period of two hours with gentle shaking, 150 ul of the reaction mix were transferred to 96 GF/C filter plates (Millipore), previously treated with wash buffer.
Format: cell-based

Chain of Muscarinic acetylcholine receptor M3 (P20309 whole entry): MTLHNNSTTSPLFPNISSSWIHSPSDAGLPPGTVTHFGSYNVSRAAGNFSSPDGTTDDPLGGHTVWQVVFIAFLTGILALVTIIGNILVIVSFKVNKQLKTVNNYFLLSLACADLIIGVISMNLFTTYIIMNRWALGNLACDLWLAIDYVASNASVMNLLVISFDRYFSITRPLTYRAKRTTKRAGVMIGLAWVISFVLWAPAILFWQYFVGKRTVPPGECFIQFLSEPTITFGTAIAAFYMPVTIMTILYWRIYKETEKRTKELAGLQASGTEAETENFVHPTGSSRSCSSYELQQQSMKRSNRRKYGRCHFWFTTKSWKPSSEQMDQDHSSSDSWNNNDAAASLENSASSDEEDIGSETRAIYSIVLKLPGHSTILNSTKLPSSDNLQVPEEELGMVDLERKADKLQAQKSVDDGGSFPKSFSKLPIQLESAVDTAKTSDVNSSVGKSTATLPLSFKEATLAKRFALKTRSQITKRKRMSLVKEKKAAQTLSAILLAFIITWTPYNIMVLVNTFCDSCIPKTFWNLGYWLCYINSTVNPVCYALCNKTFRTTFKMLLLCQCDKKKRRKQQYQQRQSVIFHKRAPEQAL

CN(CCCn1nnc2cc(CNC[C@H](O)c3ccc(O)c4c3OCC(=O)N4)ccc21)[C@H]1CC[C@H](OC(=O)[C@](O)(c2cccs2)C2CCCC2)CC1
IC50: 0.4 nM
